The values below come from publication PMC3707518 (Journal of nuclear medicine : official publication, Society …, 2010).

Several values for one entry are separate records, joined by “and”; a condition that tells them apart may be missing. Equal values may be shown once.

In series [1] the test system is β2*-nAChR. Particulars: cited from earlier work.
The conditions of series [2]: cited from earlier work.
Series [3] concerns the target T1, β2*-nAChRs (Homo sapiens, UniProt P17787). As to the kind of experiment: ^123I-5-IA SPECT regional uptake. The format is in vivo.
Series [4] has as its system β2*-nAChRs. The settings on record: nonhuman primates, cited from earlier work.
In series [5] the target is T1, β2*-nAChRs. The settings on record: 3.1 h; cited from earlier work.
Series [6] concerns the target T1, β2*-nAChRs. Particulars: 3 h after smoking challenge; representative subject, Fig. 4.
A short description of series [7]: Plasma nicotine and cotinine levels, smoking challenge and abstinence check.
The conditions of series [8]: dependent smokers; cited from earlier work.

T1 sequence (P17787 26-502): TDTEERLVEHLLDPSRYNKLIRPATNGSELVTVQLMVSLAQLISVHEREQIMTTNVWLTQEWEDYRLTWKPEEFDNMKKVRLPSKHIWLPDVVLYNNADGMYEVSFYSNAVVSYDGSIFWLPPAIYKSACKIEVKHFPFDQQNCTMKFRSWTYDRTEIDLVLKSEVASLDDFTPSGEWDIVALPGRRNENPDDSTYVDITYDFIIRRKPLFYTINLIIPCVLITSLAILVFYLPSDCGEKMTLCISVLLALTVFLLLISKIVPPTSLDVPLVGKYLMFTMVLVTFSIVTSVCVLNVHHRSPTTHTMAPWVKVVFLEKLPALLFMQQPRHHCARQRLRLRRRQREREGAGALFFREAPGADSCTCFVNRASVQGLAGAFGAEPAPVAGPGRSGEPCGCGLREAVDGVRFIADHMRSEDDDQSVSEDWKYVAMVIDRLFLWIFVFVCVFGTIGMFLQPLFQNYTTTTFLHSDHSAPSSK

For the compound `c1cncc(OC[C@@H]2CCN2)c1` [A-85380, 3-[2(S)-2-azetidinylmethoxy]pyridine], in series [1], the Affinity entry is “high affinity” and the “Selectivity for the β2*-nAChR” value was “high selectivity”.
In the case of `[123I]c1cncc(OC[C@@H]2CCN2)c1` [^123I-5-IA, 5-^123I-iodo-85380], the Safety entry in series [2] was “safe and nontoxic”. In addition, the “Nondisplaceable uptake VND/fp” value in series [3] (average and range across subjects, brain, after smoking to satiety) was 19.4 ± 5.8 mL·cm^−3 and 15–28 mL·cm^−3. Moreover, the “Average VND without correcting for fp” value in series [3] (not corrected for plasma free fraction) came to 7.03 ± 1.92 kBq/cm^3. In addition, in series [4] (inferred from specific binding), the “Nondisplaceable binding in the thalamus” value was “about 30%”. Besides, the “Specific binding in the thalamus” value in series [4] was “about 70%”.
On to `CN1CCC[C@H]1c1cccnc1` [nicotine], for which the “Nicotine in blood at the time of greatest occupancy” value in series [5] is on record as “less than 4 ng/mL”. In series [6], the Maximal occupancy was found to be 69.1%. For the same compound, in series [7] (after initiation of tobacco smoking, representative subject, Fig. 2B), the “Time of highest nicotine concentration” value is on record as 20 min. The “Blood nicotine area under curve (60 min)” value in series [7] (after smoking to satiety, individual subjects 1-10 and mean ± SD) was 4,864.0 and 3,764.0 and 8,273.0 and 8,124.0 and 8,544.3 ± 7,068.8 and 3,470.0 and 7,153.0 and 7,840.0 and 27,700.0 and 4,488.0 and 9,767.0. Also, the “Time for nicotine from tobacco smoke to reach the brain after inhalation” value in series [8] is reported as at most 30 s.
